Numbered stars: 1 amine (or outer) side, 2 acyl side, 3 side chain; on linkers, the order of the positions; unused ones are H or OH. Bridge positions count the residues as written; N and C are the ends. Square brackets hold non-standard residues; d marks the D form. Side chains are listed from the residue outwards. Peptide text beside a SMILES is read from it. * marks the point of attachment. C20 diacid = O=C(O)CCCCCCCCCCCCCCCCCCC(=O)*; γGlu = O=C(O)[C@H](CCC(=O)[*:2])N[*:1]; Hyp = O=C(O)[C@@H]1C[C@@H](O)CN1; AEEA = NCCOCCOCC(=O)O
Tests used:
[1] = Physical stability of peptide analogues (Thioflavin T fibrillation); assay type: physicochemical; conditions: maximum ThT signal normalized between hAMY maximum and buffer background; 40° C., shaking, four days; pH 7 per table title
Method in brief: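 Samples are stressed at 40 °C for four days, being shaken at 700 rpm before each 10-min fluorescence reading of 4 μM Thioflavin T. Buffers were pH 4 acetate or pH 7 phosphate. Reported values are smoothed maximum ThT signals as a percentage of the hAMY-to-background range.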

[2] = biological target: hAM1 receptor (Homo sapiens, UniProt O60895+Q16602); test: cAMP assay for in vitro receptor activation, hAM1-R; assay type: cell-based; conditions: cAMP assay, hAM1 receptor; read-out: hAM1R EC50
Method in brief: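 Read-out is intracellular cAMP as a measure of receptor activation. Cells stably overexpressing hAM1 were subcloned to a monoclonal line, then thawed and seeded at 8000 cells/well in DPBS with 0.05% casein and the phosphodiesterase inhibitor IBMX at 0.5 mM.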

[3] = biological target: T1, hAMY3 receptor (Homo sapiens, UniProt O60896+P30988); test: cAMP assay for in vitro receptor activation, hAMY3-R; assay type: cell-based; conditions: cAMP assay, hAMY3 receptor; read-out: hAMY3R EC50
T1 sequence (P30988 25-474): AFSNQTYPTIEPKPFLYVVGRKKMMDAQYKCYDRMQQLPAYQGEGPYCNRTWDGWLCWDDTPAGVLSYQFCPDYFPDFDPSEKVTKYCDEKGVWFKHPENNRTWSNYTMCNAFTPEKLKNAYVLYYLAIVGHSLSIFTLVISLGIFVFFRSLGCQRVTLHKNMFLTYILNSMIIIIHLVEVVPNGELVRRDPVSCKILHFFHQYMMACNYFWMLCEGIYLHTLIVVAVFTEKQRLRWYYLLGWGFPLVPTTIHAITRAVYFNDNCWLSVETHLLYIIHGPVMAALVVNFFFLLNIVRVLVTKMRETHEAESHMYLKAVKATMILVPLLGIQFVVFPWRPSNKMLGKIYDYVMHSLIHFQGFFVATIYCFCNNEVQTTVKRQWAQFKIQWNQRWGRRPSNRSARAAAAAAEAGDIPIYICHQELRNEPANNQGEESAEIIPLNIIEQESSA
T1 sequence (O60896 24-148 partner): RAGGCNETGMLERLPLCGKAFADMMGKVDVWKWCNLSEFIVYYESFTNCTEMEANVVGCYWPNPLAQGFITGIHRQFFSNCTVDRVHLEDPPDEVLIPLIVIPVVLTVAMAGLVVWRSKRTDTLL
Method in brief: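 Receptor activation was measured as cAMP accumulation in a monoclonal cell line stably overexpressing hAMY3. Stimulation with graded doses lasted 30 min at room temperature in the presence of 0.5 mM IBMX, with human amylin as positive control.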

hAM1 receptor, sequence (Q16602 23-461): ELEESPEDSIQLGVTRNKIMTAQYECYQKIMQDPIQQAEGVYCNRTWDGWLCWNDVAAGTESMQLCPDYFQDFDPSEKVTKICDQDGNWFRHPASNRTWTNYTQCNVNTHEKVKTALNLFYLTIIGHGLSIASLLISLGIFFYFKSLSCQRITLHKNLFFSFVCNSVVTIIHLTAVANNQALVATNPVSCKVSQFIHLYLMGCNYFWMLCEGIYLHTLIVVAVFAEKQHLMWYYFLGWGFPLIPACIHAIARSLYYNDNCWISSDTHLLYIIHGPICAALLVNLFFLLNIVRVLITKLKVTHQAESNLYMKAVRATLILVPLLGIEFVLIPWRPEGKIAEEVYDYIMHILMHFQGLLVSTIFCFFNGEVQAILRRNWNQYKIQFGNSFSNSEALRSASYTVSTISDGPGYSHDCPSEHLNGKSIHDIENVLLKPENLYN
hAM1 receptor, sequence (O60895 43-175 partner): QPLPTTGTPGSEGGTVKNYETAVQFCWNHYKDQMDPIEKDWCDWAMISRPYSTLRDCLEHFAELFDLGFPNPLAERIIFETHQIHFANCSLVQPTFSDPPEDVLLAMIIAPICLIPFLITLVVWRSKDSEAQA

Structure (SMILES) | Max ThT signal (%) [1] | EC50 [2] | EC50 [3]
CC[C@H](C)[C@H](NC(=O)[C@H](CCC(N)=O)NC(=O)[C@H](CCC(=O)O)NC(=O)[C@H](C)NC(=O)[C@H](CC(C)C)NC(=O)[C@H](CCCNC(=N)N)NC(=O)[C@H](CCC(N)=O)NC(=O)[C@@H](NC(=O)[C@@H](NC(=O)[C@@H]1CSSC[C@H](NC(=O)[C@H](CCCCN)NC(=O)CC[C@H](NC(=O)CCCCCCCCCCCCCCCCCCC(=O)O)C(=O)O)C(=O)N[C@@H](CC(N)=O)C(=O)N[C@@H]([C@@H](C)O)C(=O)N[C@@H](C)C(=O)N[C@@H]([C@@H](C)O)C(=O)N1)[C@@H](C)O)C(C)C)C(=O)N[C@@H](Cc1ccc(O)cc1)C(=O)N[C@@H](CCC(N)=O)C(=O)N[C@@H](Cc1ccccc1)C(=O)N[C@H](C(=O)N[C@@H](CC(=O)O)C(=O)N[C@@H](CCCCN)C(=O)N[C@@H](CC(=O)O)C(=O)N[C@@H](CCCCN)C(=O)N[C@@H](CC(=O)O)C(=O)N[C@@H](CC(N)=O)C(=O)N[C@H](C(=O)N[C@@H](C)C(=O)N1CCC[C@H]1C(=O)N1CCC[C@H]1C(=O)N[C@H](C(=O)N[C@@H](C)C(=O)N[C@H](C(=O)NCC(=O)N[C@@H](CO)C(=O)N[C@@H](CC(N)=O)C(=O)NCC(=O)N1C[C@H](O)C[C@H]1C(N)=O)C(C)C)[C@@H](C)O)C(C)C)[C@@H](C)O [compound 63] ({C20 diacid-γGlu}-KCNTATCTVQRLAEQIYQFTDKDKDNVAPPTAVGSNG[Hyp]-NH2; disulfide 2-7) |  | > 5000 nM | 0.012 nM
CC[C@H](C)[C@H](NC(=O)[C@H](C)NC(=O)CNC(=O)[C@H](Cc1ccccc1)NC(=O)[C@H](CC(N)=O)NC(=O)[C@H](CC(N)=O)NC(=O)[C@H](CO)NC(=O)[C@H](CO)NC(=O)[C@H](Cc1c[nH]cn1)NC(=O)[C@@H](NC(=O)[C@H](CC(C)C)NC(=O)[C@H](Cc1ccccc1)NC(=O)[C@H](CC(N)=O)NC(=O)[C@H](C)NC(=O)[C@H](CC(C)C)NC(=O)[C@H](CCCNC(=N)N)NC(=O)[C@H](CCC(N)=O)NC(=O)[C@@H](NC(=O)[C@H](C)NC(=O)[C@@H]1CSSC[C@H](NC(=O)[C@@H](N)CCCCN)C(=O)N[C@@H](CC(N)=O)C(=O)N[C@@H]([C@@H](C)O)C(=O)N[C@@H](C)C(=O)N[C@@H]([C@@H](C)O)C(=O)N1)[C@@H](C)O)C(C)C)C(=O)N[C@@H](CC(C)C)C(=O)N1CCC[C@H]1C(=O)N[C@@H](CO)C(=O)N[C@H](C(=O)N[C@@H](CCCCN)C(=O)N[C@H](C(=O)NCC(=O)N1CCC[C@H]1C(=O)N[C@@H](CC(N)=O)C(=O)NCC(=O)N[C@@H](Cc1ccc(O)cc1)C(N)=O)C(C)C)[C@@H](C)O [compound 149] (H-KCNTATCATQRLANFLVHSSNNFGAILPSTKVGPNGY-NH2; disulfide 2-7; N-terminus assumed) |  | > 5000 nM | 0.04 nM
CC[C@H](C)[C@H](NC(=O)[C@H](CCC(N)=O)NC(=O)[C@H](CCC(=O)O)NC(=O)[C@H](C)NC(=O)[C@H](CC(C)C)NC(=O)[C@H](CCCNC(=N)N)NC(=O)[C@H](CCC(N)=O)NC(=O)[C@@H](NC(=O)[C@@H](NC(=O)[C@@H]1CSSC[C@H](NC(=O)[C@@H](N)CCCCN)C(=O)N[C@@H](CC(N)=O)C(=O)N[C@@H]([C@@H](C)O)C(=O)N[C@@H](C)C(=O)N[C@@H]([C@@H](C)O)C(=O)N1)[C@@H](C)O)C(C)C)C(=O)N[C@@H](Cc1ccc(O)cc1)C(=O)N[C@@H](CCC(N)=O)C(=O)N[C@@H](Cc1ccccc1)C(=O)N[C@@H](CCCCNC(=O)COCCOCCNC(=O)COCCOCCNC(=O)CC[C@H](NC(=O)CCCCCCCCCCCCCCCCCCC(=O)O)C(=O)O)C(=O)N[C@@H](CC(=O)O)C(=O)N[C@@H](CCCCN)C(=O)N[C@@H](CC(=O)O)C(=O)N[C@@H](CCCCN)C(=O)N[C@@H](CC(=O)O)C(=O)N[C@@H](CC(N)=O)C(=O)N[C@H](C(=O)N[C@@H](C)C(=O)N1CCC[C@H]1C(=O)N1CCC[C@H]1C(=O)N[C@H](C(=O)N[C@@H](CC(N)=O)C(=O)N[C@H](C(=O)NCC(=O)N[C@@H](CO)C(=O)N[C@@H](CC(N)=O)C(=O)NCC(=O)N1C[C@H](O)C[C@H]1C(N)=O)C(C)C)[C@@H](C)O)C(C)C [compound 89] (H-KCNTATCTVQRLAEQIYQFK([AEEA-AEEA-γGlu-C20 diacid])DKDKDNVAPPTNVGSNG[Hyp]-NH2; disulfide 2-7; N-terminus assumed) |  | > 5000 nM | 0.015 nM

The next lines start with the values.

Max ThT signal (%) [1] | EC50 [2] | EC50 [3] | Structure (SMILES)
19.750% | > 5000 nM |  | CC[C@H](C)[C@H](NC(=O)[C@H](CCCCN)NC(=O)[C@@H](NC(=O)[C@H](CCCNC(=N)N)NC(=O)[C@@H]1CCCN1C(=O)[C@H](C)NC(=O)[C@@H](NC(=O)[C@H](CC(N)=O)NC(=O)[C@H](CC(=O)O)NC(=O)[C@H](CCCCN)NC(=O)[C@H](CC(=O)O)NC(=O)[C@H](CCCCN)NC(=O)[C@H](CC(=O)O)NC(=O)[C@@H](NC(=O)[C@H](Cc1ccccc1)NC(=O)[C@H](CCC(N)=O)NC(=O)[C@H](Cc1ccc(O)cc1)NC(=O)[C@@H](NC(=O)[C@H](CCC(N)=O)NC(=O)[C@H](Cc1c[nH]cn1)NC(=O)[C@H](C)NC(=O)[C@H](CC(C)C)NC(=O)[C@H](Cc1c[nH]c2ccccc12)NC(=O)[C@H](CCC(N)=O)NC(=O)[C@@H](NC(=O)[C@@H](NC(=O)[C@@H]1CSSC[C@H](NC(=O)CN)C(=O)N[C@@H](CCCNC(=N)N)C(=O)N[C@@H]([C@@H](C)O)C(=O)NCC(=O)N[C@@H]([C@@H](C)O)C(=O)N1)[C@@H](C)O)C(C)C)[C@@H](C)CC)[C@@H](C)O)C(C)C)[C@@H](C)O)C(=O)NCC(=O)N1CCC[C@H]1C(=O)N[C@@H](CCC(N)=O)C(=O)NCC(=O)N1C[C@H](O)C[C@H]1C(N)=O [compound 357] (H-GCRTGTCTVQWLAHQIYQFTDKDKDNVAPRTKIGPQG[Hyp]-NH2; disulfide 2-7; N-terminus assumed)
2.500% | 130 nM |  | CC[C@H](C)[C@H](NC(=O)[C@H](CCCCN)NC(=O)[C@@H](NC(=O)[C@H](CCCNC(=N)N)NC(=O)[C@@H]1CCCN1C(=O)[C@H](C)NC(=O)[C@@H](NC(=O)[C@H](CC(N)=O)NC(=O)[C@H](CC(=O)O)NC(=O)[C@H](CCCCN)NC(=O)[C@H](CC(=O)O)NC(=O)[C@H](CCCCN)NC(=O)[C@H](CC(=O)O)NC(=O)[C@@H](NC(=O)[C@H](Cc1ccccc1)NC(=O)[C@H](CCC(N)=O)NC(=O)[C@H](Cc1ccc(O)cc1)NC(=O)[C@@H](NC(=O)[C@H](CCC(N)=O)NC(=O)[C@H](Cc1c[nH]cn1)NC(=O)[C@H](C)NC(=O)[C@H](CC(C)C)NC(=O)[C@H](CCCNC(=N)N)NC(=O)[C@H](CCC(N)=O)NC(=O)[C@@H](NC(=O)[C@@H](NC(=O)[C@@H]1CSSC[C@H](NC(=O)CN)C(=O)N[C@@H](CCCNC(=N)N)C(=O)N[C@@H]([C@@H](C)O)C(=O)NCC(=O)N[C@@H]([C@@H](C)O)C(=O)N1)[C@@H](C)O)C(C)C)[C@@H](C)CC)[C@@H](C)O)C(C)C)[C@@H](C)O)C(=O)NCC(=O)N1CCC[C@H]1C(=O)N[C@@H](CC(N)=O)C(=O)NCC(=O)N1C[C@H](O)C[C@H]1C(N)=O [compound 115] (H-GCRTGTCTVQRLAHQIYQFTDKDKDNVAPRTKIGPNG[Hyp]-NH2; disulfide 2-7; N-terminus assumed)
 | 116 nM | 0.045 nM | CC[C@H](C)[C@H](NC(=O)[C@H](CCC(N)=O)NC(=O)[C@H](Cc1c[nH]cn1)NC(=O)[C@H](C)NC(=O)[C@H](CC(C)C)NC(=O)[C@H](CCCNC(=N)N)NC(=O)[C@H](CCC(N)=O)NC(=O)[C@@H](NC(=O)[C@@H](NC(=O)[C@@H]1CSSC[C@H](NC(=O)CN)C(=O)N[C@@H](CCCNC(=N)N)C(=O)N[C@@H](Cc2ccccc2)C(=O)NCC(=O)N[C@@H]([C@@H](C)O)C(=O)N1)[C@@H](C)O)C(C)C)C(=O)N[C@@H](Cc1ccc(O)cc1)C(=O)N[C@@H](CCC(N)=O)C(=O)N[C@@H](Cc1ccccc1)C(=O)N[C@H](C(=O)N[C@@H](CC(=O)O)C(=O)N[C@@H](CCCCN)C(=O)N[C@@H](CC(=O)O)C(=O)N[C@@H](CCCCN)C(=O)N[C@@H](CC(=O)O)C(=O)N[C@@H](CC(N)=O)C(=O)N[C@H](C(=O)N[C@@H](C)C(=O)N1CCC[C@H]1C(=O)N[C@@H](CCCNC(=N)N)C(=O)N[C@H](C(=O)N[C@@H](CCCCN)C(=O)N[C@H](C(=O)N[C@@H](CO)C(=O)N1CCC[C@H]1C(=O)N[C@@H](CCC(N)=O)C(=O)NCC(=O)N[C@@H](Cc1ccc(O)cc1)C(N)=O)C(C)C)[C@@H](C)O)C(C)C)[C@@H](C)O [compound 155] (H-GCRFGTCTVQRLAHQIYQFTDKDKDNVAPRTKVSPQGY-NH2; disulfide 2-7; N-terminus assumed)

— patent US12139520B2 (priority 2020, dated 2024)
